In US20220324835A1 (Nurix Therapeutics, Inc., priority 2018, published 2022):

Assays:
T-cell [1] = assay: IL-2 secretion from T-cells co-stimulated with anti-CD3 and anti-CD28 antibody (Biological Example 2); assay type: cell-based, human; settings: Homo sapiens, T-cell, fold change over baseline, primary human total T-cells, read-out: IL-2 secretion Anti-CD3/Anti-CD28 stimulation; for fold induction at 0.3 µM: 0.3 μM Cbl-b inhibitor; for fold induction at 1 µM: 1 μM Cbl-b inhibitor; for fold induction at 4 µM: 4 μM Cbl-b inhibitor
Summary of the method: (§1)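 T-cells were stimulated with anti-CD3 antibody alone or with anti-CD28 antibody, in the presence or absence of Cbl-b inhibitor. IL-2 secretion or CD25 surface staining was measured, and values expressed as fold over the uninhibited baseline […].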

T-cell [2] = assay: IL-2 secretion from T-cells stimulated with anti-CD3 antibody alone (Biological Example 2); assay type: cell-based, human; settings: T-cell, fold change over baseline, primary human total T-cells, read-out: IL-2 secretion Anti-CD3 stimulation; for fold induction at 1 µM: 1 μM Cbl-b inhibitor; for fold induction at 8 µM: 8 μM Cbl-b inhibitor
T-cell [3] = assay: CD25 cell surface staining on T-cells co-stimulated with anti-CD3 and anti-CD28 antibody (Biological Example 2); assay type: cell-based, human; settings: Homo sapiens, T-cell, fold change over baseline, primary human total T-cells, read-out: CD25 staining Anti-CD3/Anti-CD28 stimulation; for fold induction at 0.3 µM: 0.3 μM Cbl-b inhibitor; for fold induction at 1 µM: 1 μM Cbl-b inhibitor; for fold induction at 4 µM: 4 μM Cbl-b inhibitor
Summary of the method: as §1

T-cell [4] = assay: CD25 cell surface staining on T-cells stimulated with anti-CD3 antibody alone (Biological Example 2); assay type: cell-based, human; settings: T-cell, fold change over baseline, primary human total T-cells, read-out: CD25 staining Anti-CD3 stimulation; for fold induction at 1 µM: 1 μM Cbl-b inhibitor; for fold induction at 8 µM: 8 μM Cbl-b inhibitor
Cbl-b = Cbl-b (Homo sapiens, UniProt Q13191); assay: Cbl-b activity assay (Cbl-b inhibition assay), TR-FRET of Cbl-b interaction with UbcH5B-Ub; assay type: biochemical; settings: assay buffer with 100 mM NaCl, 60 nM Src kinase; read-out: Cbl-b activity IC50
Summary of the method: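 UbcH5B (C85K) conjugated to N-terminally Bodipy-Fluorescein-labeled ubiquitin served as the fluorescent partner. After compound preincubation, Src kinase (60 nM) with 1 mM ATP and 5 mM MgCl2 (final) was added for 1.5 h, followed by a further 1 h incubation. Some values were obtained with 50 mM NaCl and 30 nM Src.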

Cbl-b (residues 36-427) = Cbl-b (residues 36-427) (Homo sapiens, UniProt Q13191); assay: Cbl-b binding assay (SPR, Biacore T200); settings: 20° C., 1:1 binding model
Summary of the method: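 Steps: capture protein on NeutrAvidin surface; inject compound dilutions (8 or 10 points from 100 or 50 μM) 50 s; allow 90-180 s dissociation; regenerate 20 s with 0.3 M NaCl. Runs at 20° C in HEPES pH 7.5/100 mM NaCl/2% DMSO; 1:1 fitting.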

Chain of Cbl-b (residues 36-427) (Q13191 36-427): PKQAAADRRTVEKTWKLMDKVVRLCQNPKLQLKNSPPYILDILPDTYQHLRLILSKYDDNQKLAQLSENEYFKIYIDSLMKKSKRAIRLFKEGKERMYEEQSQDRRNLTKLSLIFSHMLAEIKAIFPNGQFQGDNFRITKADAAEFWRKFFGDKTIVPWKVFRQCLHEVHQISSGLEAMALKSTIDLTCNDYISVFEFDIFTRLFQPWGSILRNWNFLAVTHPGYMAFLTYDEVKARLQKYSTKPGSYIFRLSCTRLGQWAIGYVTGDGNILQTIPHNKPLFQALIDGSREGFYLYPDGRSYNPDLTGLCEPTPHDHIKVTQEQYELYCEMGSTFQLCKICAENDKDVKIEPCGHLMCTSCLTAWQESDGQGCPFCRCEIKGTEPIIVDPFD
Chain of Cbl-b (Q13191 36-427): as above

Q: With `C[C@H](Cc1nncn1C)c1cc(N[C@H]2CCOC2)nc(N2Cc3c(cccc3C(F)(F)F)C2=O)c1` (stereo in doubt) [Compound 361, 2-(4-((R)-1-(4-methyl-4H-1,2,4-triazol-3-yl)propan-2-yl)-6-((R)-THF-3-ylamino)pyridin-2-yl)-4-(trifluoromethyl)isoindolin-1-one] as the compound, how does the fold induction at 0.3 µM (T-cell [1]) read?
A: 1.01 to 2.5

Q: What about the fold induction at 1 µM (T-cell [1]) of the same compound?
A: 1.01 to 2.5

Q: What about the fold induction at 4 µM (T-cell [1]) of the same compound?
A: 1.01 to 2.5

Q: What about the fold induction at 1 µM (T-cell [2]) of the same compound?
A: 0.051 to 0.1

Q: What about the fold induction at 8 µM (T-cell [2]) of the same compound?
A: 0.151 to 0.2

Q: And the fold induction at 0.3 µM (T-cell [3])?
A: < 1

Q: And the fold induction at 1 µM (T-cell [3])?
A: 1.01 to 1.3

Q: What about the fold induction at 4 µM (T-cell [3]) of the same compound?
A: 1.01 to 1.3

Q: And the fold induction at 1 µM (T-cell [4])?
A: 0.601 to 0.8

Q: And the fold induction at 8 µM (T-cell [4])?
A: 0.801 to 1

Q: And the IC50 (Cbl-b)?
A: 0.301 to 1 µM

Q: What about the Kd (Cbl-b (residues 36-427)) of the same compound?
A: 0.301 to 1 µM

Q: How did the fold induction at 0.3 µM (T-cell [1]) turn out when `Cc1ccc(C(=O)Nc2cccc([C@@H](C)Cc3nccn3C)c2)nc1C1CC1` [Compound 331] was run?
A: 1.01 to 2.5

Q: And the fold induction at 1 µM (T-cell [1])?
A: 1.01 to 2.5

Q: And the fold induction at 4 µM (T-cell [1])?
A: 1.01 to 2.5

Q: What about the fold induction at 1 µM (T-cell [2]) of the same compound?
A: < 0.05

Q: And the fold induction at 8 µM (T-cell [2])?
A: 0.051 to 0.1

Q: And the fold induction at 0.3 µM (T-cell [3])?
A: < 1

Q: What about the fold induction at 1 µM (T-cell [3]) of the same compound?
A: < 1

Q: And the fold induction at 4 µM (T-cell [3])?
A: 1.01 to 1.3

Q: What about the fold induction at 1 µM (T-cell [4]) of the same compound?
A: < 0.6

Q: And the fold induction at 8 µM (T-cell [4])?
A: 0.601 to 0.8

Q: What about the IC50 (Cbl-b) of the same compound?
A: 0.301 to 1 µM

Q: And the Kd (Cbl-b (residues 36-427))?
A: 1 to 3 µM

Q: For `CNC(=O)COc1ccc2cnc(C(=O)Nc3cccc([C@H](C)Sc4nncn4C)c3)cc2c1` [Compound 306a, (S)-N-(3-(1-(4-methyl-4H-1,2,4-triazol-3-ylthio)ethyl)phenyl)-6-(2-(methylamino)-2-oxoethoxy)isoquinoline-3-carboxamide], which fold induction at 0.3 µM (T-cell [1]) is on record?
A: < 1

Q: What about the fold induction at 1 µM (T-cell [1]) of the same compound?
A: 1.01 to 2.5

Q: What about the fold induction at 4 µM (T-cell [1]) of the same compound?
A: 1.01 to 2.5

Q: What about the fold induction at 1 µM (T-cell [2]) of the same compound?
A: < 0.05

Q: What about the fold induction at 8 µM (T-cell [2]) of the same compound?
A: < 0.05

Q: What about the fold induction at 0.3 µM (T-cell [3]) of the same compound?
A: 1.01 to 1.3

Q: What about the fold induction at 1 µM (T-cell [3]) of the same compound?
A: 1.01 to 1.3

Q: And the fold induction at 4 µM (T-cell [3])?
A: 1.01 to 1.3

Q: What about the fold induction at 1 µM (T-cell [4]) of the same compound?
A: < 0.6

Q: And the fold induction at 8 µM (T-cell [4])?
A: 0.801 to 1

Q: What about the IC50 (Cbl-b) of the same compound?
A: 0.1 to 0.3 µM

Q: What about the Kd (Cbl-b (residues 36-427)) of the same compound?
A: 0.1 to 0.3 µM

Q: What does the source list for `C[C@H](Cc1nncn1C)c1cccc(NC(=O)c2[nH]nc3c2CCCC3)c1` [Compound 327, (R)-N-(3-(1-(4-Methyl-4H-1,2,4-triazol-3-yl)propan-2-yl)phenyl)-4,5,6,7-tetrahydro-2H-indazole-3-carboxamide]?
A: fold induction at 0.3 µM (T-cell [1]): 1.01 to 2.5; fold induction at 1 µM (T-cell [1]): 1.01 to 2.5; fold induction at 4 µM (T-cell [1]): 1.01 to 2.5; fold induction at 1 µM (T-cell [2]): 0.051 to 0.1; fold induction at 8 µM (T-cell [2]): 0.051 to 0.1; fold induction at 0.3 µM (T-cell [3]): 1.01 to 1.3; fold induction at 1 µM (T-cell [3]): 1.01 to 1.3; fold induction at 4 µM (T-cell [3]): 1.01 to 1.3; fold induction at 1 µM (T-cell [4]): 0.601 to 0.8; fold induction at 8 µM (T-cell [4]): 0.801 to 1; IC50 (Cbl-b): 0.301 to 1 µM; Kd (Cbl-b (residues 36-427)): 1 to 3 µM

Q: For `C[C@H](Sc1nncn1C)c1cccc(NC(=O)c2cc3cc(OCc4ccn[nH]4)ccc3cn2)c1` [Compound 307, (S)-6-((1H-pyrazol-5-yl)methoxy)-N-(3-(1-((4-methyl-4H-1,2,4-triazol-3-yl)thio)ethyl)phenyl)isoquinoline-3-carboxamide], which fold induction at 0.3 µM (T-cell [1]) is on record?
A: 1.01 to 2.5

Q: And the fold induction at 1 µM (T-cell [1])?
A: 1.01 to 2.5

Q: What about the fold induction at 4 µM (T-cell [1]) of the same compound?
A: 2.51 to 5

Q: And the fold induction at 1 µM (T-cell [2])?
A: 0.051 to 0.1

Q: What about the fold induction at 8 µM (T-cell [2]) of the same compound?
A: 0.101 to 0.15

Q: And the fold induction at 0.3 µM (T-cell [3])?
A: < 1

Q: What about the fold induction at 1 µM (T-cell [3]) of the same compound?
A: < 1

Q: What about the fold induction at 4 µM (T-cell [3]) of the same compound?
A: 1.01 to 1.3

Q: And the fold induction at 1 µM (T-cell [4])?
A: < 0.6

Q: And the fold induction at 8 µM (T-cell [4])?
A: < 0.6

Q: And the IC50 (Cbl-b)?
A: 0.1 to 0.3 µM

Q: And the Kd (Cbl-b (residues 36-427))?
A: 0.301 to 1 µM
